Data published in PMC6663863, “The inositol hexakisphosphate kinases IP6K1 and -2 regulate human cellular phosphate homeostasis, including XPR1-mediated phosphate export” (The Journal of Biological Chemistry, 2019).

What follows are compounds tested against T1, SPX^XPR1 (recombinant His-tagged SPX domain of human XPR1) (Homo sapiens, UniProt Q9UBH6) (assay: competition with [3H]IP6, PEG precipitation).
T1 construct: SPX domain only, N-terminal cytosolic part; residue borders not given, cloning primers encode start MKFAEHL and end PPLGAAQ-stop; His tag (modified pHisTrcA), HisTrap purified
T1 sequence (Q9UBH6 1-227): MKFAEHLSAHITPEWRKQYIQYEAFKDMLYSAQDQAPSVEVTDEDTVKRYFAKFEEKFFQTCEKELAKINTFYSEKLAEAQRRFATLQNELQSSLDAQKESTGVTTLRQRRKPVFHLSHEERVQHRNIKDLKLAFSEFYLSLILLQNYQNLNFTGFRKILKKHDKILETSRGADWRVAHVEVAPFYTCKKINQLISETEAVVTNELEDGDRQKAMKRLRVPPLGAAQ
Format: binding

| IC50 [µM] | SMILES |
| --- | --- |
| ~9.8 | O=P(O)(O)O[C@H]1[C@H](OP(=O)(O)O)[C@@H](OP(=O)(O)O)[C@H](OP(=O)(O)O)[C@@H](OP(=O)(O)O)[C@H]1OP(=O)(O)O [IP6, inositol hexakisphosphate] |
| ~4.2 | O=P(O)(O)O[C@H]1[C@@H](OP(=O)(O)O)[C@H](OP(=O)(O)O)[C@@H](OP(=O)(O)OP(=O)(O)O)[C@H](OP(=O)(O)O)[C@H]1OP(=O)(O)O [5-IP7, 5-diphosphoinositol pentakisphosphate] |
| ~8.4 | O=P(O)(O)O[C@@H]1[C@@H](OP(=O)(O)O)[C@@H](OP(=O)(O)O)[C@@H](OP(=O)(O)OP(=O)(O)O)[C@H](OP(=O)(O)O)[C@H]1OP(=O)(O)O [1-IP7] |
| 28.1 ± 3.9 | O=P(O)(O)O[C@@H]1[C@@H](OP(=O)(O)O)[C@H](OP(=O)(O)O)[C@H](O)[C@H](OP(=O)(O)O)[C@H]1OP(=O)(O)O [I(1,3,4,5,6)P5] |
